Experimental data published in US20220119354A1, “DIAMINO-SUBSTITUTED PYRIDINES AND PYRIMIDINES AS HERBICIDES” (FMC Corporation, priority 2019, published 2022).

Legend:
Assay type in all cases: in vivo
[1] = test system: ducksalad (Heteranthera limosa); assay: Test B flooded paddy test, ducksalad; details: Flood, 250 g ai/ha, applied to paddy water, 2-leaf stage, visual evaluation after 13 to 15 d
How it was run: (§1)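 Each response is a visual 0–100 rating made against untreated controls, where 0 is no effect and 100 is complete control; a dash marks no result. Compound was dosed into 3 cm paddy water over 2-leaf plants, assessed after 13 to 15 d.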

[2] = test system: galium (catchweed bedstraw, Galium aparine); assay: Test A postemergence, galium; details: 0 to 100 scale
How it was run: (§2)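 Pots of loam–sand mix; preemergence directed soil spray at sowing, postemergence spray at one- to two-leaf stage. Readout: visual injury vs untreated controls, ~10 d, 0–100 scale.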

[3] = test system: ryegrass, Italian (Lolium multiflorum); assay: Test A preemergence, Italian ryegrass; details: 0 to 100 scale
How it was run: as §2

corn (Zea mays) = assay: Test A postemergence, corn; details: 0 to 100 scale
How it was run: as §2

[4] = test system: ragweed (common ragweed, Ambrosia elatior); assay: Test A preemergence, ragweed; details: 0 to 100 scale
How it was run: as §2

rice (Oryza sativa) = assay: Test B flooded paddy test, rice; details: Flood, 250 g ai/ha, applied to paddy water, 2-leaf stage, visual evaluation after 13 to 15 d
How it was run: as §1

kochia (Kochia scoparia) [5] = assay: Test A preemergence, kochia; details: 0 to 100 scale
How it was run: as §2

[6] = test system: wheat (Triticum aestivum); assay: Test A postemergence, wheat; details: 0 to 100 scale
How it was run: as §2

[7] = test system: barnyardgrass (Echinochloa crus-galli); assay: Test A postemergence, barnyardgrass; details: 0 to 100 scale
How it was run: as §2

[8] = test system: foxtail, giant (Setaria faberii); assay: Test A preemergence, giant foxtail; details: 0 to 100 scale
How it was run: as §2

kochia (Kochia scoparia) [9] = assay: Test A postemergence, kochia; details: 0 to 100 scale
How it was run: as §2

[10] = test system: sedge, umbrella (small-flower umbrella sedge, Cyperus difformis); assay: Test B flooded paddy test, umbrella sedge; details: Flood, 250 g ai/ha, applied to paddy water, 2-leaf stage, visual evaluation after 13 to 15 d
How it was run: as §1

[11] = test system: barnyardgrass (Echinochloa crus-galli); assay: Test A preemergence, barnyardgrass; details: 0 to 100 scale
How it was run: as §2

[12] = test system: blackgrass (Alopecurus myosuroides); assay: Test A postemergence, blackgrass; details: 0 to 100 scale
How it was run: as §2

[13] = test system: barnyardgrass (Echinochloa crus-galli); assay: Test B flooded paddy test, barnyardgrass; details: Flood, 250 g ai/ha, applied to paddy water, 2-leaf stage, visual evaluation after 13 to 15 d
How it was run: as §1

[14] = test system: pigweed (Amaranthus retroflexus); assay: Test A postemergence, pigweed; details: 0 to 100 scale
How it was run: as §2

[15] = test system: pigweed (Amaranthus retroflexus); assay: Test A preemergence, pigweed; details: 0 to 100 scale
How it was run: as §2

[16] = test system: ragweed (common ragweed, Ambrosia elatior); assay: Test A postemergence, ragweed; details: 0 to 100 scale
How it was run: as §2

[17] = test system: foxtail, giant (Setaria faberii); assay: Test A postemergence, giant foxtail; details: 0 to 100 scale
How it was run: as §2

[18] = test system: ryegrass, Italian (Lolium multiflorum); assay: Test A postemergence, Italian ryegrass; details: 0 to 100 scale
How it was run: as §2

[19] = 125 g ai/ha, 0 is no effect, 100 is complete control

| SMILES | Plant response rating, Ducksalad (0 to 100 scale, 0 is no effect, 100 is complete control) [1] | Plant response rating, Galium ([2]; 125 g ai/ha) | Plant response rating, Galium ([2]; 500 g ai/ha) | Plant response rating, Ryegrass, Italian ([3]; 500 g ai/ha) | Plant response rating, Corn (corn (Zea mays); 125 g ai/ha) | Plant response rating, Corn (corn (Zea mays); 500 g ai/ha) | Plant response rating, Ragweed ([4]; 500 g ai/ha) | Plant response rating, Rice (0 to 100 scale, 0 is no effect, 100 is complete control) (rice (Oryza sativa)) | Plant response rating, Kochia (kochia (Kochia scoparia) [5]; 500 g ai/ha) | Plant response rating, Wheat ([6]; 125 g ai/ha) | Plant response rating, Wheat ([6]; 500 g ai/ha) | Plant response rating, Barnyardgrass ([7]; 125 g ai/ha) | Plant response rating, Barnyardgrass ([7]; 500 g ai/ha) | Plant response rating, Foxtail, Giant ([8]; 500 g ai/ha) | Plant response rating, Kochia (kochia (Kochia scoparia) [9]; 125 g ai/ha) | Plant response rating, Kochia (kochia (Kochia scoparia) [9]; 500 g ai/ha) | Plant response rating, Sedge, Umbrella (0 to 100 scale, 0 is no effect, 100 is complete control) [10] | Plant response rating, Barnyardgrass ([11]; 500 g ai/ha) | Plant response rating, Blackgrass ([12]; 125 g ai/ha) | Plant response rating, Blackgrass ([12]; 500 g ai/ha) | also measured |
| --- | --- | --- | --- | --- | --- | --- | --- | --- | --- | --- | --- | --- | --- | --- | --- | --- | --- | --- | --- | --- | --- |
| CC(COc1cc(F)cc(F)c1)Nc1ncc(C(F)(F)F)c(N)n1 (stereo not drawn) [Compound 33] | 70 | 20 | 60 | 0 | 0 | 0 | 0 | 0 | 30 | 0 | 0 | 0 | 0 | 30 | 0 | 30 | 25 | 0 | 0 | 0 | Ryegrass, Italian plant response rating [3, 19]: 0; Ragweed plant response rating [4, 19]: 0; Kochia plant response rating (kochia (Kochia scoparia) [5]; [19]): 0; Foxtail, Giant plant response rating [8, 19]: 0; Barnyardgrass plant response rating [11, 19]: 0; Plant response rating, Barnyardgrass (0 to 100 scale, 0 is no effect, 100 is complete control) [13]: 0; Plant response rating, Pigweed ([14]; 125 g ai/ha): 0; Plant response rating, Pigweed ([14]; 500 g ai/ha): 30; Pigweed plant response rating [15, 19]: 20; Plant response rating, Pigweed ([15]; 500 g ai/ha): 50; Plant response rating, Ragweed ([16]; 125 g ai/ha): 0; Plant response rating, Ragweed ([16]; 500 g ai/ha): 0; Plant response rating, Foxtail, Giant ([17]; 125 g ai/ha): 0; Plant response rating, Foxtail, Giant ([17]; 500 g ai/ha): 0; Plant response rating, Ryegrass, Italian ([18]; 125 g ai/ha): 0; Plant response rating, Ryegrass, Italian ([18]; 500 g ai/ha): 0 |
| CC(Nc1ncc(C(F)(F)F)c(N)n1)C1Cc2ccccc2C1 (racemic) [Compound 6] | 0 | 40 | 70 | 70 | 0 | 20 | 100 | 0 | 100 | 0 | 0 | 10 | 10 | 100 | 70 | 90 | 0 | 60 | 0 | 10 | Plant response rating, Ryegrass, Italian ([3]; 125 g ai/ha): 30; Plant response rating, Ragweed ([4]; 125 g ai/ha): 30; Plant response rating, Kochia (kochia (Kochia scoparia) [5]; 125 g ai/ha): 80; Plant response rating, Foxtail, Giant ([8]; 125 g ai/ha): 90; Plant response rating, Barnyardgrass ([11]; 125 g ai/ha): 0; Plant response rating, Barnyardgrass (0 to 100 scale, 0 is no effect, 100 is complete control) [13]: 0; Plant response rating, Pigweed ([14]; 125 g ai/ha): 90; Plant response rating, Pigweed ([14]; 500 g ai/ha): 100; Plant response rating, Pigweed ([15]; 125 g ai/ha): 100; Plant response rating, Pigweed ([15]; 500 g ai/ha): 100; Plant response rating, Ragweed ([16]; 125 g ai/ha): 20; Plant response rating, Ragweed ([16]; 500 g ai/ha): 40; Plant response rating, Foxtail, Giant ([17]; 125 g ai/ha): 0; Plant response rating, Foxtail, Giant ([17]; 500 g ai/ha): 20; Plant response rating, Ryegrass, Italian ([18]; 125 g ai/ha): 0; Plant response rating, Ryegrass, Italian ([18]; 500 g ai/ha): 20 |
